Assay: xn = mol fraction of the nth substance listed
Conditions: 101 kPa, Liquid, Vibrating tube method

N#Cc1ccccc1 [benzonitrile] + CCCCCCCCC
mass density [kg/m3]
Conditions | 285.15 K | 288.15 K | 293.15 K | 298.15 K | 303.15 K | 308.15 K | 313.15 K
x1 = 0.0239 | 728.45 | 726.13 | 722.24 | 718.34 | 714.42 | 710.49 | 706.54
x1 = 0.0499 | 732.81 | 730.47 | 726.57 | 722.65 | 718.72 | 714.77 | 710.81
x1 = 0.0989 | 741.4 | 739.05 | 735.11 | 731.16 | 727.2 | 723.22 | 719.23
x1 = 0.1985 | 760.34 | 757.95 | 753.95 | 749.94 | 745.93 | 741.89 | 737.84
x1 = 0.2542 | 771.77 | 769.36 | 765.34 | 761.3 | 757.25 | 753.19 | 749.11
x1 = 0.2998 | 781.58 | 779.16 | 775.11 | 771.05 | 766.97 | 762.89 | 758.79
x1 = 0.4005 | 804.92 | 802.47 | 798.37 | 794.26 | 790.14 | 786 | 781.85
x1 = 0.4966 | 829.64 | 827.16 | 823.01 | 818.85 | 814.68 | 810.5 | 806.31
x1 = 0.5998 | 859.12 | 856.6 | 852.4 | 848.19 | 843.96 | 839.73 | 835.48
x1 = 0.6996 | 891.01 | 888.45 | 884.18 | 879.91 | 875.63 | 871.34 | 867.05
x1 = 0.7999 | 926.93 | 924.34 | 920 | 915.67 | 911.33 | 906.99 | 902.64
x1 = 0.9001 | 967.24 | 964.61 | 960.22 | 955.83 | 951.44 | 947.05 | 942.65
x1 = 0.9497 | 988.96 | 986.32 | 981.91 | 977.49 | 973.08 | 968.67 | 964.25
x1 = 0.9805 | 1003.05 | 1000.4 | 995.97 | 991.55 | 987.13 | 982.7 | 978.27
x1 = 1 | 1012.21 | 1009.55 | 1005.12 | 1000.69 | 996.26 | 991.83 | 987.4
